Biological target: Mitogen-activated protein kinase 10 (Homo sapiens, UniProt P53779)
Assay: Binding affinity to JNK3 (unknown origin) by surface plasmon resonance analysis in presence of ATP

Mitogen-activated protein kinase 10, sequence (P53779 whole entry): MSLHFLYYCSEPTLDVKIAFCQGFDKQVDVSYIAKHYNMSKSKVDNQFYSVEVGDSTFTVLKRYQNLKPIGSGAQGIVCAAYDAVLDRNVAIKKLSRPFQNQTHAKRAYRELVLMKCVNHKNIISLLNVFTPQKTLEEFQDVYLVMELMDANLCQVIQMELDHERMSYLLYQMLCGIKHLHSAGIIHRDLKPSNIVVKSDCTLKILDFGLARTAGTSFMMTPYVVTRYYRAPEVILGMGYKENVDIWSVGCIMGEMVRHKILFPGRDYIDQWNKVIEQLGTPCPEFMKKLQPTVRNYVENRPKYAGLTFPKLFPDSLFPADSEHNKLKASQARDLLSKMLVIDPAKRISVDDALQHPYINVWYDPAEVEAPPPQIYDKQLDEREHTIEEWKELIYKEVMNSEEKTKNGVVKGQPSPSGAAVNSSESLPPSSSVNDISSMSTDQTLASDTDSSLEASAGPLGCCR

| SMILES | Kd (read-out: Kd) [µM] | Kd (read-out: pKd (converted)) [µM] |
| --- | --- | --- |
| Oc1ccc2c(c1)nc(-c1ccc3ccccc3c1)n2-c1ccnc(NC2CCOCC2)n1 | 1.66 | 1.66 |
| Oc1ccc2nc(-c3ccc4ccccc4c3)n(-c3ccnc(NC4CCOCC4)n3)c2c1 | 6 | 6.03 |
| O=C(C1CC1)N1CCC[C@@H](Nc2nccc(-n3c(-c4ccc5ccccc5c4)nc4cc(O)ccc43)n2)C1 | 2.65 | 2.63 |
| c1ccc2cc(-c3nc4ccccc4n3-c3ccnc(NC4CCCCC4)c3)ccc2c1 | 5.26 | 5.25 |
| c1ccc2cc(-c3nc4ccccc4n3-c3ccnc(NC4CCOCC4)c3)ccc2c1 | 4.65 | 4.68 |
| C[C@H](O)CNc1cc(-n2c(-c3ccc4ccccc4c3)nc3ccccc32)ccn1 | 12.7 | 12.6 |
| COc1ccc2c(c1)nc(-c1ccc3ccccc3c1)n2-c1ccnc(NC2CCCCC2)c1 | 176 | 178 |
| COc1ccc2c(c1)nc(-c1ccc(Cl)c(Cl)c1)n2-c1ccnc(NC2CCCCC2)c1 | 18.1 | 18.2 |
| O=C(C1CC1)N1CCC[C@@H](Nc2cc(-n3c(-c4ccc5ccccc5c4)nc4ccccc43)ccn2)C1 | 10.7 | 10.7 |
| Oc1ccc2c(c1)nc(-c1ccc3ccccc3c1)n2-c1ccnc(NC2CCCCC2)c1 | 24.5 | 24.5 |
| Oc1ccc2c(c1)nc(-c1ccc3ccccc3c1)n2-c1ccnc(NC2CCOCC2)c1 | 10 | 10 |
| Oc1ccc2c(c1)nc(-c1ccc3ccccc3c1)n2-c1ccnc(N[C@@H]2CCCNC2)c1 | 6.05 | 6.03 |
| O=C(C1CC1)N1CCC[C@@H](Nc2cc(-n3c(-c4ccc5ccccc5c4)nc4cc(O)ccc43)ccn2)C1 | 27.7 | 27.5 |
| O=C(C1CC1)N1CCC[C@@H](Nc2cc(-n3c(-c4cccc(O)c4)nc4ccccc43)ccn2)C1 | 2.64 | 2.63 |
| C[C@H](O)CNc1cc(-n2c(-c3cccc(O)c3)nc3ccccc32)ccn1 | 19.1 | 19.1 |
| Oc1ccc2c(c1)nc(-c1ccc(Cl)c(Cl)c1)n2-c1ccnc(NC2CCCCC2)c1 | 13.8 | 13.8 |
| c1ccc2cc(-c3nc4ccccc4n3-c3ccnc(NC4CCCCC4)n3)ccc2c1 | 1.75 | 1.74 |
| c1ccc2cc(-c3nc4ccccc4n3-c3ccnc(NC4CCOCC4)n3)ccc2c1 | 2.33 | 2.34 |
| COc1ccc2c(c1)nc(-c1ccc3ccccc3c1)n2-c1ccnc(NC2CCCCC2)n1 | 0.743 | 0.741 |
| COc1ccc2nc(-c3ccc4ccccc4c3)n(-c3ccnc(NC4CCCCC4)n3)c2c1 | 1.77 | 1.74 |
| Clc1ccc(-c2nc3ccccc3n2-c2ccnc(NC3CCOCC3)n2)cc1Cl | 21.8 | 21.9 |
| c1ccc2cc(-c3nc4ccccc4n3-c3ccnc(N[C@@H]4CCCNC4)n3)ccc2c1 | 2.98 | 2.95 |
| O=C(C1CC1)N1CCC[C@@H](Nc2nccc(-n3c(-c4ccc5ccccc5c4)nc4ccccc43)n2)C1 | 1.93 | 1.95 |
| COc1ccc2c(c1)nc(-c1ccc3ccccc3c1)n2-c1ccnc(N[C@@H]2CCCN(C(=O)C3CC3)C2)n1 | 2.91 | 2.88 |
| COc1ccc2nc(-c3ccc4ccccc4c3)n(-c3ccnc(N[C@@H]4CCCN(C(=O)C5CC5)C4)n3)c2c1 | 1.17 | 1.17 |
| O=C(C1CC1)N1CCC[C@@H](Nc2nccc(-n3c(-c4ccc(Cl)c(Cl)c4)nc4ccccc43)n2)C1 | 7.69 | 7.76 |
| Oc1ccc2c(c1)nc(-c1ccc3ccccc3c1)n2-c1ccnc(NC2CCCCC2)n1 | 1.89 | 1.91 |
| Oc1ccc2nc(-c3ccc4ccccc4c3)n(-c3ccnc(NC4CCCCC4)n3)c2c1 | 31.7 | 31.6 |

From ChEMBL document CHEMBL2331452, “3D-QSAR studies of 1,2-diaryl-1H-benzimidazole derivatives as JNK3 inhibitors with protective effects in neuronal cells” (Bioorg Med Chem Lett, 2013)
